Experimental data published in ChEMBL document CHEMBL1201862, “PubChem BioAssay data set” (2004).
The source made the active and inactive calls.

Assays:
[1] = luciferase reporter signal suppression in cells – H4 neuroglioma cells, luminescence, dose response (AID 1990); format: functional, cell-based
[2] = system: Vero; assay: cells; format: functional; conditions: Chlorocebus sabaeus
[3] = alpha-synuclein stem-loop luciferase translation blockers – H4 neuroglioma cells, luminescence, confirmation (AID 1988); format: functional, cell-based
[4] = target: T1, High affinity choline transporter 1 (Homo sapiens, UniProt Q9GZV3); assay: human choline transporter blockers, potency – cell-based, 5-point CRC, membrane potential dye, dose response (AID 504840); format: functional
T1 sequence (Q9GZV3 whole entry): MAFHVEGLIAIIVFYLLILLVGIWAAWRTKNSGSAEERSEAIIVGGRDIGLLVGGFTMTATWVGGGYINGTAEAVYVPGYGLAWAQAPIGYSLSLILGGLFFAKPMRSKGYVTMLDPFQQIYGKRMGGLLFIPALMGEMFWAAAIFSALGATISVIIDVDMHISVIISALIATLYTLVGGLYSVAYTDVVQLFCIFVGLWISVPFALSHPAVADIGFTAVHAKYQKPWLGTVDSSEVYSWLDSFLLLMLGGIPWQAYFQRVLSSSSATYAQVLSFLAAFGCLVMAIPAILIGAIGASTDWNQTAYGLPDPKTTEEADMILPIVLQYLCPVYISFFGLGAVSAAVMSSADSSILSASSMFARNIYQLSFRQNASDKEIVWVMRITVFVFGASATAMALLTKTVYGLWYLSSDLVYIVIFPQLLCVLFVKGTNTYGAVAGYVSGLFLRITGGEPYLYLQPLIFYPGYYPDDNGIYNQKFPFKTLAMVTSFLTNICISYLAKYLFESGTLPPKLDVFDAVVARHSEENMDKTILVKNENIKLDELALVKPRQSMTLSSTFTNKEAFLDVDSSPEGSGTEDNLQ

[5] = target: Cytochrome P450 3A4 (Homo sapiens, UniProt P08684); conditions: Potency;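 further: confirmatory qHTS run detecting inhibitors and substrates of CYP3A4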
[6] = blockers of bursicon-stimulated LGR2 cAMP reporter – cell-based, HEK293, CRE-luciferase reporter, cherry pick, set 2, dose response (AID 743343); format: functional;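 further: transfected cells were stimulated with diluted bursicon conditioned medium after compound addition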
[7] = blockade of melanocortin 4 receptor signaling – cell-based, plate reader, cherry pick, counter-screen for LGR2 antagonist project, dose response (AID 743444); format: functional;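 further: transfected HEK 293 cells stimulated with alpha-MSH peptide; potency of inhibitors of the alpha-MSH evoked signal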
[8] = target: T2, Ubiquitin-conjugating enzyme E2 N (Homo sapiens, UniProt P61088); format: functional;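 further: Dose-response confirmation in a TR-FRET assay detecting UBC13-driven polyubiquitin chain formation, inhibition measured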
T2 sequence (P61088 whole entry): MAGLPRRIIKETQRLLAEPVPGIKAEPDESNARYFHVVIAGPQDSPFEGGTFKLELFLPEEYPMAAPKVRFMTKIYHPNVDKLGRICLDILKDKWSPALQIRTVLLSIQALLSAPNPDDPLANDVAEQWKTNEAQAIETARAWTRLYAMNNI

[9] = cells
[10] = target: Major prion protein (Homo sapiens, UniProt P04156); format: functional, cell-based
[11] = blockers of HIV-1 ZM109 envelope-driven cell-cell fusion – HeLa effector, CEM target cells, luciferase, cherry-pick, dose response (AID 652058); format: functional, cell-based;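 further: luciferase signal from HIV-1 Env mediated cell-cell fusion of effector and target cells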
[12] = HIV-1 AD8 envelope cell-cell fusion blockers – cherry-pick, dose response (AID 652062); format: functional, cell-based;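 further: luciferase signal from cell-cell fusion driven by HIV-1 clade B AD8 Env; potency is for inhibitors of fusion seen as a drop in luminescence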
[13] = blockers of HIV-1 envelope-mediated cell-cell fusion – cherry-pick, dose response (AID 652057); format: functional, cell-based
[14] = target: T3, Streptokinase A (Streptococcus pyogenes serotype M1, UniProt P10520); assay: viability-normalized secreted streptokinase activity reduction – plasminogen activation absorbance, OD405, dose response (AID 1914); format: functional, Streptococcus pyogenes M1 GAS;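 further: secreted streptokinase activity via plasminogen activation per viability signal from cell pellet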
T3 sequence (P10520 whole entry): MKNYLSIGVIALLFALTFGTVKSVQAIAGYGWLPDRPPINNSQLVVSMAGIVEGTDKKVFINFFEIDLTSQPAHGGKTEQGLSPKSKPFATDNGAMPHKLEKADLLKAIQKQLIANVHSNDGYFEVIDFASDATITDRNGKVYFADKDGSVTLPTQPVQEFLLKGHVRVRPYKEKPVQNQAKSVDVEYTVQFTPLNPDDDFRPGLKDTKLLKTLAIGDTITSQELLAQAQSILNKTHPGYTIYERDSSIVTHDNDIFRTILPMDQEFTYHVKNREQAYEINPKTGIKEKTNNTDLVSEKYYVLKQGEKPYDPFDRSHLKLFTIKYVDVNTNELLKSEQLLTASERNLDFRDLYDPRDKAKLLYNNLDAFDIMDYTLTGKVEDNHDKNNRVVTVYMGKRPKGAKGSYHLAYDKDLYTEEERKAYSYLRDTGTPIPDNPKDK

[15] = system: Streptococcus sp. 'group A'; assay: Streptococcus pyogenes SK(-)GAS viability under kanamycin – luminescence, BacTiterGlo, confirmation, counter-screen for streptokinase expression inhibitor project, dose response (AID 1900); format: functional, organism-based
[16] = target: T4, Type-1 angiotensin II receptor (Homo sapiens, UniProt P30556); assay: antagonism of angiotensin II type 1 receptor – cell-based, uHTS hits, selectivity assay for APJ receptor antagonist project, dose response (AID 463214); format: functional;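 further: antagonist potency against angiotensin II stimulated AT1 response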
T4 sequence (P30556 whole entry): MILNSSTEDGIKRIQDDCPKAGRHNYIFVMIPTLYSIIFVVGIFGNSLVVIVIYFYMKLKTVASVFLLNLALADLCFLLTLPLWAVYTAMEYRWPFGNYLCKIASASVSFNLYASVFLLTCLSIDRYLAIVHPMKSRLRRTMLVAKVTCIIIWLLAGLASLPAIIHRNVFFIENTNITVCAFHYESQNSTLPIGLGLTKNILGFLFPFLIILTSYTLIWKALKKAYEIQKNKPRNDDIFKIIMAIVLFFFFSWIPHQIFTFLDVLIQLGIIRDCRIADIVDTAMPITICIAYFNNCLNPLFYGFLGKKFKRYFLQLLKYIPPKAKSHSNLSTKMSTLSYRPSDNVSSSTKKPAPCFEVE

[17] = target: Beta-galactosidase (Escherichia coli, UniProt Q8VNN2); assay: PubChem AID 485352; format: functional
[18] = system: Streptococcus; assay: GAS UMAA2166 growth inhibition – luminescence, BacTiterGlo, counter-screen for streptokinase expression inhibitor project, dose response (AID 1915); format: functional, organism-based;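 further: potency for reduction of bacterial viability or growth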
[19] = growth inhibition of PfATP4-mutant resistant parasites – NITD609-resistant line, SYBR Green, dry powder, dose response (AID 1159571); format: functional, cell-based;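 further: parasites synchronized at ring stage by sorbitol before testing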
[20] = P. falciparum Dd2 growth inhibitors, dose response, SYBR Green, cherry-picked samples (AID 1159567); format: functional, cell-based
[21] = toxicity to human HepG2 hepatoma cells – cell-based, plate reader, dry powder samples, cytotoxicity control, dose response (AID 1159569); format: functional;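 further: inhibitor potency with signal falling toward the positive control level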
[22] = growth inhibition of yeast DHODH-expressing 3D7 parasites – SYBR Green, dry powder samples, dose response (AID 1159570); format: functional, cell-based;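 further: parasite growth measured after 72 hours of compound exposure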
[23] = Dd2 malaria parasite growth inhibition potency – SYBR Green, dry powder samples, dose response (AID 1159566); format: functional, cell-based;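 further: potency for growth inhibition with lower SYBR green DNA signal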

In the case of `NC(=O)c1oc2ccccc2c1NC(=O)c1ccc([N+](=O)[O-])o1`, the EC50 [1] is reported as 8.49 µM (active), the CC50 [2] is reported as 5.74 µM (active) and the EC50 [3] is reported as 4.08 µM (active).
In the case of `O=C1/C(=C/c2cccc(Cl)c2)SC(=S)N1CCC(=O)N1CCCCC1CCO` (stereo not drawn), the CC50 [2] is reported as 19.9 µM (active).
With `Cc1ccccc1/C=C/C(=O)NCC(=O)N1CCC(N(C)C2CCCCC2C)CC1` (stereo not drawn) the IC50 [4] was 14.5 µM (active).
In the case of `CC(C)=CCCC1(C)C=Cc2c(O)c3c(c(CC=C(C)C)c2O1)OC12C(=CC4CC1C(C)(C)OC2(C/C=C(/C)C(=O)O)C4=O)C3=O` (stereo not drawn), the AC50 [5] is reported as 39.8 µM (inconclusive).
For `CNC(=O)Oc1cccc(-c2cn3cc(Cl)ccc3n2)c1`, the AC50 [6] was 15.8 µM (active) and the AC50 [7] was 18.6 µM (active).
For `CC1CCCCC1NC(=O)c1ccc(S(=O)(=O)NCC2CCCO2)cc1` (stereo not drawn), the IC50 [4] was 12.3 µM (active).
With `O=C(Cn1cc(C(=O)c2cccs2)c2ccccc21)NC1CCCCC1` the IC50 [8] was > 20 µM (inactive).
For `CC(=O)OC1CCC2C3CCc4cc(O)ccc4C3CCC12C` (stereo not drawn), the AC50 [5] was 39.8 µM (inconclusive).
In the case of `CN(C)CCCN(C(=O)C1=COCCO1)c1nc2ccc(Br)cc2s1`, the CC50 [2] is reported as > 25 µM (active).
In the case of `Cc1cc(NC(=O)CSc2nc(-c3cccs3)nc3ccccc23)no1`, the IC50 [9] is reported as 53.6 µM (inactive) and the IC50 [10] is reported as 2.15 µM (active).
With `COc1ccc(NC(=O)Nc2ccc3c(c2)C(=O)N([C@H](C)CO)C[C@H](C)[C@H](CN(C)Cc2ccncc2)OCCCC[C@H](C)O3)cc1` the AC50 [11] was 8.87 µM (active), the AC50 [12] was 20.1 µM (active) and the AC50 [13] was 13 µM (active).
In the case of `Cc1ccc(C)c(NC(=S)N/N=C2/CCCCc3ccccc32)c1`, the EC50 [14] is reported as > 150 µM (not active), the EC50 [15] is reported as 956 nM (active) and the IC50 [16] is reported as > 40 µM (not active). The EC50 [17] was > 40 µM (inactive) and the EC50 [18] was > 150 µM (not active).
With `CO[C@H]1CN(C)C(=O)c2cc(NC(=O)Nc3cccc(Cl)c3)ccc2OC[C@H](C)NC[C@H]1C` the AC50 [19] was 5.09 µM (active), the AC50 [20] was 4.56 µM (active) and the AC50 [21] was 25 µM (active). The AC50 [22] was 3.37 µM (active) and the AC50 [23] was 3.03 µM (active).
With `CO[C@@H]1CN(C)C(=O)c2ccc(NC(=O)Nc3ccc(C(F)(F)F)cc3)cc2OC[C@H](C)NC[C@H]1C` the AC50 [19] was 2.88 µM (active), the AC50 [20] was 2.13 µM (active) and the AC50 [21] was 32.6 µM (active). The AC50 [22] was 2.96 µM (active) and the AC50 [23] was 1.51 µM (active).
In the case of `C[C@@H]1CN([C@H](C)CO)C(=O)c2cccc(NC(=O)c3ccc(-c4nccs4)cc3)c2O[C@H]1CN(C)Cc1ccc2c(c1)OCO2`, the AC50 [19] is reported as 3.44 µM (active), the AC50 [20] is reported as 1.19 µM (active) and the AC50 [21] is reported as > 100 µM (inactive). The AC50 [22] was 3.63 µM (active) and the AC50 [23] was 3.02 µM (active).
For `C/C=C/c1ccc2c(c1)[C@H]1[C@H](CCN1S(=O)(=O)c1ccccc1C)[C@@H](CO)N2`, the AC50 [19] was 0.942 µM (active), the AC50 [20] was 1.83 µM (active) and the AC50 [22] was 1.46 µM (active). The AC50 [23] was 1.18 µM (active).
In the case of `CCCCCC[C@H]1C(=O)O[C@H](C)[C@H](NC(=O)c2cccc(NC=O)c2O)C(=O)O[C@@H](C)[C@@H]1OC(=O)CC(C)C` [ANTIMYCIN A], the AC50 [5] is reported as 6.31 µM (inconclusive).
With `NC(=O)c1ccccc1` [BENZAMIDE] the AC50 [5] was 0.005 µM (inconclusive).
